# Assay results published in paper PMC11592078, “Synthesis, Analytical Characterization, and Human CB1 Receptor Binding Studies of the Chloroindole Analogues of the Synthetic Cannabinoid MDMB-CHMICA” (Biomolecules, 2024).
# Where two headings read alike, the source gives them in different places.
# Experiments:
# hCB1 receptor [1] = target: T1, hCB1 receptor (Homo sapiens, UniProt P21554); assay: competitive ligand binding assay with [3H]-CP-55,940 on hCB1 membrane preparations of HEK293-EBNA cells
# T1 construct: purchased Perkin Elmer; host or cells: HEK293-EBNA
# hCB1 receptor [2] = target: T1, hCB1 receptor; set-up: method as in earlier work; details: read-out: Ki at hCB1; comparable assay setup; ref 31 (Schoeder et al.); cited from earlier work
# T1 sequence (P21554 whole entry): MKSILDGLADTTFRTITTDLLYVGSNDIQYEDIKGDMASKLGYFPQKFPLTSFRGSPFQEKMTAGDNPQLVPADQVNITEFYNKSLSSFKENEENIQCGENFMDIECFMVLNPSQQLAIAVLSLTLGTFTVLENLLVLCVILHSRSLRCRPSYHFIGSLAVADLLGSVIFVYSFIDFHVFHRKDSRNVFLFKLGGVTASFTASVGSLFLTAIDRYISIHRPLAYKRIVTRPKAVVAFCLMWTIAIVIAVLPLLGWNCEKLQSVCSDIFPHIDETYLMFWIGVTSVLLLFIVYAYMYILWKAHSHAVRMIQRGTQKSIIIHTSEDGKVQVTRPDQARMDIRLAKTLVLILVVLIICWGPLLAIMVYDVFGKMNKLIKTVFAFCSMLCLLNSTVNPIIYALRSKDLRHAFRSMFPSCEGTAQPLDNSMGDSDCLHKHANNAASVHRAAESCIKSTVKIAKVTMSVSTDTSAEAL
Structure (SMILES),IC50 (hCB1 receptor [1]) [nM],Ki (hCB1 receptor [1]) [nM],rank of Ki among the chloro analogues (hCB1 receptor [1]; comparison of the substitution positions),Ki (hCB1 receptor [2]) [nM]
"COC(=O)[C@@H](NC(=O)c1cn(CC2CCCCC2)c2cc(Cl)ccc12)C(C)(C)C [6-Chloro-MDMB-CHMICA, Methyl (S)-2-(6-chloro-1-(cyclohexylmethyl)-1H-indole-3-carboxamido)-3,3-dimethylbutanoate]",31.6,0.77,–,–
"COC(=O)[C@@H](NC(=O)c1cn(CC2CCCCC2)c2c(Cl)cccc12)C(C)(C)C [7-Chloro-MDMB-CHMICA, Methyl (S)-2-(7-chloro-1-(cyclohexylmethyl)-1H-indole-3-carboxamido)-3,3-dimethylbutanoate]",28.8,0.7,–,–
"COC(=O)[C@@H](NC(=O)c1cn(CC2CCCCC2)c2ccc(Cl)cc12)C(C)(C)C [5-Chloro-MDMB-CHMICA, Methyl (S)-2-(5-chloro-1-(cyclohexylmethyl)-1H-indole3-carboxamido)-3,3-dimethylbutanoate]",402,9.81,–,–
"COC(=O)[C@@H](NC(=O)c1cn(CC2CCCCC2)c2cccc(Cl)c12)C(C)(C)C [4-Chloro-MDMB-CHMICA, Methyl (S)-2-(4-chloro-1-(cyclohexylmethyl)-1H-indole-3-carboxamido)-3,3-dimethylbutanoate]",268,6.55,–,–
"CCCCCn1cc(C(=O)c2cccc3ccccc23)c2ccccc21 [JWH-018, naphthalen-1-yl(1-pentyl-1H-indol-3-yl)methanone, reference compound]",103,2.69,–,–
"COC(=O)[C@@H](NC(=O)c1c(Cl)n(CC2CCCCC2)c2ccccc12)C(C)(C)C [2-Chloro-MDMB-CHMICA, Methyl (S)-2-(2-chloro-1-(cyclohexylmethyl)-1H-indole-3-carboxamido)-3,3-dimethylbutanoate]",23.6,0.58,lowest Ki value,–
"COC(=O)C(NC(=O)c1cn(CC2CCCCC2)c2ccccc12)C(C)(C)C (stereo not drawn) [MDMB-CHMICA, Methyl 2-[[1-(cyclohexylmethyl)-1H-indole-3-carbonyl]amino]-3,3-dimethylbutanoate]",–,0.951,–,0.41 ± 0.141
